In PubChem BioAssay (NCI):
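Test compounds were applied to cells in 96-well plates for 48 hours at 5 doses. GI50 marks 50% less growth. TGI: concentration producing complete growth inhibition.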

Experiments:
Test in all cases: DTP human tumour cell line panel, 48 h
BT-549 breast = test system: BT-549 breast
DU-145 prostate = test system: DU-145 prostate
K-562 leukemia = test system: K-562 leukemia
MDA-MB-435 = test system: MDA-MB-435
MOLT-4 leukemia = test system: MOLT-4 leukemia
NCI-H522 lung = test system: NCI-H522 lung
SF-539 CNS = test system: SF-539 CNS
SK-MEL-2 melanoma = test system: SK-MEL-2 melanoma
SK-MEL-28 melanoma = test system: SK-MEL-28 melanoma
UACC-62 melanoma = test system: UACC-62 melanoma

| SMILES | GI50 (BT-549 breast) [µM] | TGI (BT-549 breast) [µM] | GI50 (DU-145 prostate) [µM] | TGI (DU-145 prostate) [µM] | GI50 (K-562 leukemia) [µM] | TGI (K-562 leukemia) [µM] | GI50 (MDA-MB-435) [µM] | TGI (MDA-MB-435) [µM] | GI50 (MOLT-4 leukemia) [µM] | TGI (MOLT-4 leukemia) [µM] | GI50 (NCI-H522 lung) [µM] | TGI (NCI-H522 lung) [µM] | GI50 (SF-539 CNS) [µM] | TGI (SF-539 CNS) [µM] | GI50 (SK-MEL-2 melanoma) [µM] | TGI (SK-MEL-2 melanoma) [µM] | GI50 (SK-MEL-28 melanoma) [µM] | TGI (SK-MEL-28 melanoma) [µM] | GI50 (UACC-62 melanoma) [µM] | TGI (UACC-62 melanoma) [µM] |
| --- | --- | --- | --- | --- | --- | --- | --- | --- | --- | --- | --- | --- | --- | --- | --- | --- | --- | --- | --- | --- |
| COc1ccccc1C#Cc1ccccc1C#CCCCCCC#Cc1ccccc1C#Cc1ccccc1OC | > 100 | > 100 | > 100 | > 100 | 31 | > 100 | 83.8 | > 100 | > 100 | > 100 | 40.3 | > 100 | > 100 | > 100 | > 100 | > 100 | 68.6 | > 100 | > 100 | > 100 |
| O=C(Nc1ccccc1O)c1ccc(Oc2cccc(C(=O)Nc3ccccc3O)c2)cc1 | 2.53 | 27 | 3.37 | 11.9 | 0.819 | > 100 | 0.294 | 10.2 | 0.767 | 6.85 | 1.07 | 4.73 | 1.61 | 6.3 | 1.73 | 5.87 | 1.84 | 12.2 | 1.22 | 5.1 |
| C=C1C(=O)O[C@H]2[C@H]1CC/C(COC(=O)CSCC(=O)OC/C1=C/CC[C@@]3(C)O[C@H]3[C@H]3OC(=O)C(=C)[C@@H]3CC1)=C\CC[C@@]1(C)O[C@@H]21 | 1.42 | 2.9 | 1.5 | 3.05 | 0.636 | 4.06 | 1.69 | 3.92 | 0.514 | 2.81 | 1.08 | 2.49 | 2.04 | 5.08 | 2.12 | 5.62 | 1.55 | 3.61 | 1.69 | 3.95 |
| C=CCC1(O)c2cccc(NCCO)c2C(=O)c2c(NCCO)cccc21 | > 100 | > 100 | > 100 | > 100 | > 100 | > 100 | > 100 | > 100 | > 100 | > 100 | > 100 | > 100 | > 100 | > 100 | > 100 | > 100 | > 100 | > 100 | > 100 | > 100 |
| NS(=O)(=O)c1cccc(N=Cc2c(O)[nH]c3ccccc23)c1 | > 25 | > 25 | > 25 | > 25 | > 25 | > 25 | > 25 | > 25 | > 25 | > 25 | 24.4 | > 25 | > 25 | > 25 | > 25 | > 25 | > 25 | > 25 | > 25 | > 25 |
| O=C(O)c1cc(N=Cc2ccccc2O)cc(C(=O)O)c1 | – | > 100 | – | > 100 | – | > 100 | – | > 100 | – | > 100 | – | > 100 | – | > 100 | – | > 100 | – | > 100 | – | > 100 |
| COc1ccc(-c2ccc(-c3ccc(-c4ccc(C(=N)N)cc4)s3)s2)cc1OC | 17.3 | 46.8 | 0.478 | 2.23 | 1.9 | 5.47 | 5.32 | 20.2 | 2.51 | 6.6 | 14.1 | 62.2 | 15.4 | 38.7 | 19.7 | 43.5 | 18.1 | 40.6 | 18.4 | 48 |
| C=C(c1ccc(C(=O)N(C)c2ccccc2N)cc1)C(C)N1C(=O)[C@H]2CCCN2C(=O)c2ccccc21 (some centres undefined) | > 100 | > 100 | 33.3 | > 100 | 19.3 | > 100 | 38.3 | > 100 | 24.8 | 97.9 | 17.7 | > 100 | 42.3 | > 100 | 99.5 | > 100 | 31.2 | > 100 | 24 | > 100 |
| Cc1c2c[n+](C(C)C)ccc2c(C)c2c1[nH]c1ccccc12 | 1.72 | 11.2 | 4.74 | 54.1 | 2.72 | 29 | 3.2 | 13.2 | 3.28 | 17.8 | 2.26 | 11.4 | 1.62 | 16.4 | 2.89 | 9.81 | 2.25 | 12.9 | 2.7 | 15 |
| C#Cc1c(C(N)=O)ncn1C1OC(COP(=O)(OCc2ccc([N+](=O)[O-])o2)N(C)CCCCCl)C(O)C1O (centres undefined) | 37.8 | > 100 | 7.83 | > 100 | 74.2 | > 100 | 46.2 | > 100 | 83.7 | > 100 | 3.78 | 88.1 | 19.7 | > 100 | 89.9 | > 100 | 27.3 | > 100 | > 100 | > 100 |
| CO[C@@H]1CC(=O)C2(CC(=O)O[C@@H]2/C=C(\C)CCC=C(C)C)C[C@@H]1O (some centres undefined) | 0.492 | 2.34 | 0.577 | 1.55 | 0.829 | > 50 | 0.803 | 3.59 | 0.233 | > 50 | 1.82 | > 50 | 0.502 | 1.56 | 1.39 | 4.88 | 0.83 | 1.86 | 0.812 | 1.71 |
| C=C1C(=O)O[C@H]2[C@H]1CC/C(COC(=O)NCCc1c[nH]c3ccc(OC)cc13)=C\CC[C@@]1(C)O[C@@H]21 | 1.4 | 3.13 | 1.61 | 4.43 | 0.453 | 3.29 | 1.8 | 4.06 | 2.22 | 5.88 | 1.18 | 2.75 | 1.78 | 4.01 | 1.84 | 4.18 | 1.65 | 3.22 | 1.72 | 3.77 |
| COc1ccc2c(c1)C(=O)/C(=C/c1ncc([N+](=O)[O-])n1C)O2 | 0.618 | 1.99 | 0.868 | 2.98 | 0.245 | – | 0.161 | 0.323 | 0.161 | 0.562 | 0.192 | 0.449 | 1.55 | 3.41 | 0.361 | 1.61 | 0.317 | 1.91 | 1.29 | 3.12 |
| CC(=O)O/N=C1/C(c2c(O)[nH]c3cc(Br)ccc23)=Nc2ccccc21 | 1.28 | 3.5 | 1.44 | 3.2 | 0.553 | 3.3 | 1.63 | 3.2 | 1.78 | 5.07 | 1.56 | 3.68 | 0.818 | 3.13 | 1.28 | 2.89 | 2.22 | 4.9 | 1.17 | 2.75 |
| CCCCCCCCCCCCSC(=N)N | 18.9 | 47.1 | 8.98 | 23 | 2.01 | 4.64 | 3.9 | 15.3 | 2.46 | 5.85 | 5.21 | 21.6 | 15.2 | 32 | 19.5 | 36.2 | 13.7 | 27.9 | 15.7 | 31 |
